According to patent publication US12637687B2, “Nucleic acid molecules, polypeptides having epoxy group-removing catalytic activity and use thereof” (SHANDONG AGRICULTURAL UNIVERSITY, priority 2020, dated 2026):

What was measured:
ThFhb7 [1] = tested on: ThFhb7; parameters: species or system Thinopyrum ponticum; conditions: in vivo
ThFhb7 [2] = type: cell-based, Thinopyrum ponticum
[3] = tested on: pancreatic cancer cell line (PATU8988); test: Cytotoxicity assay by CCK8 method; conditions: PATU8988, 48 h treatment, CCK-8, OD450
[4] = tested on: human embryonic kidney cell 293-derived line (293T); test: Cytotoxicity assay by CCK8 method; conditions: 48 h treatment, CCK-8, OD450
[5] = tested on: normal human esophageal epithelial cells (HEECs); test: Cytotoxicity assay by CCK8 method; conditions: 48 h treatment, CCK-8, OD450
[6] = In vitro enzymatic reaction system of ThFhb7 polypeptide (DON + GSH, LC-HRMS); type: biochemical
Description: The optimal conditions for the in vitro enzymatic reaction system of ThFhb7 polypeptide were established by gradient experiments of three different factors affecting the enzymatic reaction: • (1) the gradient of reaction enzyme amounts: 1 μg, 5 μg, 10 μg, 25 μg, and 50 μg; • (2) the pH gradient set with various buffers: ranging from 3.0 to 10.0, disodium hydrogen phosphate-citric acid buffer (pH=3.0, 4.0, 5.0), disodium hydrogen phosphate-potassium dihydrogen phosphate buffer (pH=6.0, 7.0), and Tris-phosphate buffer (pH=8.0, 9.0, 10.0); and • (3) the gradient of reaction temperatures: 4° C., 12° C., 15° C., 20° C., 25° C., 30° C., 37° C., 45° C., and 50° C.
The reaction was performed in a phosphate buffer (PBS) (pH=7.0), at 25° C. for 12 h, and samples were taken at 0 h, 0.5 h, 1 h, 3 h, and 6 h respectively for LC-HRMS analysis; through the area results of first-level scanning of LC-HRMS, the changes in the amounts of the two substances, DON as the reaction substrate and the GSH adduct as the reaction product, were obtained with proceeding of reaction, so as to obtain the optimal enzyme amount for the reaction, as shown in FIGS. 14A and 14B. […]

F. asiaticum = conditions: in vivo
F. pseudograminearum [7] = conditions: in vivo
F. pseudograminearum [8] = conditions: in vivo; remark: listed apart in the source
Pichia pastoris = test: DON tolerance of transgenic Pichia pastoris; type: cell-based; conditions: YPDA media comprising 400 μM DON, 5 days

| Molecule | amounts decreased as compared with the control (ThFhb7 [1]) | toxin significantly reduced as compared with wheat without ThFhb7 (ThFhb7 [1]) | DON-GSH adduct in DON-treated yeast expressing the active polypeptide (ThFhb7 [2]) | cell viability [3] | cell viability [4] | cell viability [5] | catalysis of vomitoxin into a glutathione adduct in vitro ([6]; DON 1 mg, GSH in PBS, 20° C., 24 h) | enzyme activity above 37° C. (DON-GSH cannot be detected) ([6]; above 37° C., pH 7.0, 25 μg enzyme) | diseased spot area on leaves vs KN199 (F. asiaticum) | diseased spot area on leaves vs KN199 (F. pseudograminearum [7]) | death rate of transgenic plants vs wild type (F. pseudograminearum [8]) | degree of disease at the stem base vs control (F. pseudograminearum [8]) | growth viability vs transgenic yeast with the blank vector (Pichia pastoris) |
| --- | --- | --- | --- | --- | --- | --- | --- | --- | --- | --- | --- | --- | --- |
| CC(=O)O[C@@H]1C[C@]2(C)[C@@]3(CO)[C@H](O)C(=O)C(C)=C[C@H]3O[C@H]1[C@@]21CO1 [3-ADON, 3-acetyl-deoxynivalenol] | about ⅔ | about ⅓ | – | – | – | – | – | – | – | – | – | – | – |
| CC1=C[C@H]2O[C@@H]3[C@H](O)C[C@](C)([C@@]2(CO)[C@H](O)C1=O)[C@]31CO1 [DON, deoxynivalenol] | about ⅔ | about ⅓ | detected | decreases sharply | decreases sharply | decreases sharply | – | – | – | – | – | – | – |
| ThFhb7: de-epoxidase from Thinopyrum ponticum; polypeptide having epoxy group-removing catalytic activity, amino acid sequence SEQ ID NO: 36, gene SEQ ID NO: 1 (protein, listed as Elytrigia ponticum) MATSASTSTPIIPTAIAGAPPVAGTCCAVAPTLSALALAPLAVPTTTTTVLMPAISSVAASLAVPACALPAAGSAPATLPIIHAPATASLVGASPAIAATLGATTPASGAGALPPPGLLATAVGAAMPGLLIPLSGIAASPGLAATAAPASAVAAAPTAHVGLMVHGLPLAPATAAVTLAGPVAAAGLSSTAALGMVGGAAALMMGSLAAMLGALAALPALAASGPPLLGGAATTAAMIVGGTLAMMAATLPVSGTGGAAACHGAIPGGLHAALALTAGVL | – | – | – | – | – | – | efficiently catalyze vomitoxin into a glutathione adduct | basically lost its activity | significantly reduced | significantly reduced | significantly lower | less severe | significantly higher |
